In patent US9949976B2, “Kinase inhibitor and use thereof” (Sihuan Pharmaceutical Holdings Group Ltd., priority 2013, dated 2018):
Where two headings read alike, the source gives them in different places.

Key:
CDK6/D3 = CDK6/D3 (Homo sapiens, UniProt Q00534); assay: In vitro enzyme-inhibiting activity, Caliper Mobility Shift method; format: biochemical; settings: read-out: CDK enzyme-inhibiting activity IC50 CDK6/D3
Procedure: (§5) Measurement of activity for inhibiting CDK4/6 kinase by Caliper Mobility Shift method.
50 mL stock solution containing 1000 mM HEPES (pH 7.5), and 50 μL stock solution containing 30% Brij-35, were added to 949.95 mL ultra pure water, and the resultant mixture was mixed homogeneously.
(§6) 25 mL stock solution containing 4% Coating Reagent #3 (provided with the 12-sipper chip used in Caliper device), 50 mL stock solution containing 1000 mM HEPES (pH 7.5), 50 mL stock solution containing 0.5 M EDTA, and 0.25 mL stock solution containing 30% Brij-35, were added to 374.75 mL ultra pure water, and the resultant mixture was mixed homogeneously.
18 μL CDK6/D3 enzyme solution, and 14 μL stock solution containing 1M DTT were added to 2768 μL 1-fold CDK6 kinase buffer, and the resultant mixture was mixed homogeneously.
23 μL stock solution containing 100 mM ATP, 75 μL stock solution containing 1M MgCl2, and 75 μL FAM-tagged polypeptide 8, were added to 2827 μL 1-fold CDK6 kinase buffer, and the resultant mixture was mixed homogeneously.
(§7) DMSO solution containing 10 mM test compound was diluted with DMSO to a solution containing 50 μM test compound (which was used as a stock solution).
(§8) 1) 5 μL 5-fold test compound solution and 10 μL 2.5-fold kinase solution were added to the corresponding wells in a 384-well plate, and incubated at room temperature for 10 min.
(§9) 2) To the corresponding wells, 10 μL 2.5-fold polypeptide solution was added to start the enzymatic reaction, and incubation was performed at 28° C. for 5 h.
(§10) To the corresponding wells, 25 μL stop solution was added to stop the reaction.
(§11) The data was read by Caliper device, the inhibition rate was calculated by the following formula, and curve fitting was carried out by GraphPad5.0 software to get IC50 value. Inhibition rate=(maximal value−sample value)/(maximal value−minimal value)×100, wherein, maximal value: positive control without addition of test compound; minimal value: negative control without addition of enzyme.

CDK4/D3 = CDK4/D3 (Homo sapiens, UniProt P11802); assay: as above; format: biochemical; settings: read-out: CDK enzyme-inhibiting activity IC50 CDK4/D3
Sequence of CDK4/D3 (P11802 whole entry): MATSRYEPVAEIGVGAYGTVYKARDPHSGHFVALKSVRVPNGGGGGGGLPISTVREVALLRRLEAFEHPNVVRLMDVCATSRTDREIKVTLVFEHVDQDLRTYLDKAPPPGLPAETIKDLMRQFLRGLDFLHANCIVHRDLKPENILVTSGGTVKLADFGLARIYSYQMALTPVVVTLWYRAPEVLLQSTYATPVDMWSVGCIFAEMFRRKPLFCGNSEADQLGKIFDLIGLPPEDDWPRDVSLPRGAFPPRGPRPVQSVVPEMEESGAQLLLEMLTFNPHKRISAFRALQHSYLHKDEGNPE
Sequence of CDK4/D3 (P30281 whole entry partner): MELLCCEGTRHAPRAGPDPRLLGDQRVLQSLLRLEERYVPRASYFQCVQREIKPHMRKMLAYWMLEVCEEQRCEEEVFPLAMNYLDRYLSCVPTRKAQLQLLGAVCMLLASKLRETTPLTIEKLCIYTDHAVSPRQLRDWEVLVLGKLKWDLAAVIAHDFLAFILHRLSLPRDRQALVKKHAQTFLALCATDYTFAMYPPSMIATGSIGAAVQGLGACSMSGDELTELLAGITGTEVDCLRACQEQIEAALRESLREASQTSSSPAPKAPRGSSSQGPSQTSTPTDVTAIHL
Procedure: as §5
1) Preparation of 1-Fold Buffer for CDK4 Kinase 800 μL stock solution containing 1000 mM HEPES (pH 7.5), and 40 μL stock solution containing 10% Triton X-100, were added to 39160 μL ultra pure water, and the resultant mixture was mixed homogeneously.
as §6
7 μL CDK4/D3 enzyme solution, and 9 μL stock solution containing 1M DTT were added to 1784 μL 1-fold CDK4 kinase buffer, and the resultant mixture was mixed homogeneously.
10 μL stock solution containing 100 mM ATP, 45 μL stock solution containing 1M MgCl2, and 45 μL FAM-tagged polypeptide 8, were added to 1700 μL 1-fold CDK4 kinase buffer, and the resultant mixture was mixed homogeneously.
as §7, §8, §9, §10, §11

[1] = tested on: MCF-7 human breast cancer cell; assay: BrdU cell proliferation assay (Cell Signaling kit); format: cell-based; settings: MCF7, 72 h, read-out: In vitro cell-inhibiting activity IC50 MCF-7
Procedure: (§1) Experimental method: cell proliferation assay was carried out by BrdU method (BrdU cell proliferation assay kit, Cell Signaling Technology Company).
(§2) Preparation of gradient dilution solutions of test compound: the stock solution containing 10 mM test compound was subjected to 4-fold stepwise dilution with DMSO to prepare solutions containing 2.5 mM, 625 μM, 156 μM, 39 μM, 9.8 μM, and 2.5 μM test compound, respectively. 2 μL DMSO-diluted compound was added to 198 μL culture medium containing 10% FBS to prepare […] test compound, wherein the maximum concentration of the test compound was 100 μM, the concentration of DMSO was 1%, and there were 7 concentration gradients.
MCF-7 medium: DMEM+10% FBS+0.01 mg/mL insulin
(§3) (1) Cells grown to 80% confluence (in exponential growth phase) were digested with pancreatin, and centrifuged to collect the cells. MDA-MB-435S and U87MG cells were re-suspended in FBS-free culture medium, counted, and seeded to a 96-well plate; MDA-MB-435S cells were seeded at 3000 cells/well/81 μL; U87MG cells were seeded at 4000 cells/well/81 MCF-7 cells were resuspended in culture medium containing 1% FBS, and counted and seeded to a 96-well plate, at 4000 cell/well/82 μL. The plates were placed in a cell incubator at 37° C. […]
(§4) (9) To each well, stop solution (100 μL) was added, and OD value at 450 nm was measured by ELISA instrument […]

[2] = tested on: U87MG human glioblastoma cell; assay: BrdU cell proliferation assay (Cell Signaling kit); format: cell-based; settings: U-87 MG, 72 h, read-out: In vitro cell-inhibiting activity IC50 U87MG
Procedure: as §1, §2
U87MG medium: MEM+10% FBS
as §3, §4

[3] = Pharmacokinetics in nude mouse (IV and PO); format: in vivo; settings: female, BALB/c nude, plasma; for bioavailability: read-out: F (absolute bioavailability)
Procedure: Test animal: female nude mouse (BALB/c); control agent: 3 mice/administration route at each time point, weight: 22-25 g/mouse; Compound 1: 3 mice/administration route at each time point, weight: 22-25 g/mouse; Compound 6-1: 6 mice/administration route/test compound, weight: 18-26 g/mouse.
Control agent/Compound 1, IV administration group: before administration, 0.083, 0.25, 0.5, 1, 2, 4, 6, 8, 24, and 30 h after administration; PO administration group (10 mg/kg): before administration, 0.167, 0.5, 1, 2, 4, 6, 8, 24, and 30 h after administration.
Compound 1, PO administration group (100 mg/kg): 0.167, 0.5, 1, 2, 4, 6, 8, 24, 30, and 48 h after administration.
Compound 6-1, IV administration group (2.5 mg/kg) and PO administration group (10 mg/kg): 0.083, 0.25, 0.5, 1, 2, 4, 6, 8 and 24 h after administration; Compound 6-1, PO administration group (100 mg/kg): 0.083, 0.25, 0.5, 1, 2, 4, 6, 8, 24, 30, 48 h after administration.
Control agent/Compound 1: 300 μL whole blood was collected from intraocular canthus at each time point, and was centrifuged at 8000 r/min for 6 min in a high speed centrifuge to separate the plasma; the plasma was stored in a refrigerator at −80° C. Compound 6-1: 60 μL whole blood was collected from intraocular canthus at each time point, and was placed in an anticoagulation tube containing anticoagulant agent K2EDTA; the blood sample was centrifuged at 8000 r/min for 6 min to obtain a plasma sample.
The plasma samples of control agent and compound 1 were analyzed by precipitation of protein: to 50 μL plasma, 200 μL internal standard (acetonitrile solution containing 500 ng/mL Warfarin) was added; the resultant mixture was vortexed for 3 min at 1500 r/min, and centrifuged for 5 min at 13000 r/min; to 100 μL supernatant, 400 μL water was added; the resultant mixture was mixed homogeneously under vortexing and analyzed by LC-MS/MS.
The plasma sample of compound 6-1 was analyzed by precipitation of protein: to a suitable amount of plasma, a given volume of internal standard solution was added; the resultant mixture was vortexed and centrifuged; the supernatant was diluted by adding a given volume of water; the resultant mixture was mixed homogeneously under vortexing and analyzed by LC-MS/MS.

[4] = tested on: MDA-MB-435S human melanoma cell; assay: BrdU cell proliferation assay (Cell Signaling kit); format: cell-based; settings: 72 h, read-out: In vitro cell-inhibiting activity IC50 MDA-MB-435S
Procedure: as §1, §2
MDA-MB-435S medium: L-15+10% FBS+0.01 mg/mL insulin
as §3, §4

Sequence of CDK6/D3 (Q00534 whole entry): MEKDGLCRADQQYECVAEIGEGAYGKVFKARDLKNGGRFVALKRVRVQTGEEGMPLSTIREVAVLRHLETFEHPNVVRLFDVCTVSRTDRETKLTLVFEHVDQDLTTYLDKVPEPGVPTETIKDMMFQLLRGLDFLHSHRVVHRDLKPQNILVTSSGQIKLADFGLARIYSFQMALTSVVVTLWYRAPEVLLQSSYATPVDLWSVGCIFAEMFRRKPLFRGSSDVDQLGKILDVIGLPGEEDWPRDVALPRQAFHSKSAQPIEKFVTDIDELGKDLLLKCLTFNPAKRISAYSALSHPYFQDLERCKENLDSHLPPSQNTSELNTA
Sequence of CDK6/D3 (P30281 whole entry partner): as the sequence (P30281 whole entry partner) above

## CCN1C2CCC1CN(Cc1cnc(Nc3cc(-c4cc(F)c5nc(C)n(C(C)C)c5c4)c(F)cn3)nc1)C2 [Compound 14, 5-((8-ethyl-3,8-diazabicyclo[3.2.1]octan-3-yl)methyl)-N-(5-fluoro-4-(4-fluoro-1-isopropyl-2-methyl-1H-benzo[d]imidazol-6-yl)pyridin-2-yl)pyrimidin-2-amine]
CDK6/D3
  IC50: 23.1 nM
CDK4/D3
  IC50: 2.6 nM

## CCN1CC2CCC(C1)N2Cc1cnc(Nc2cc(-c3cc(F)c4nc(C)n(C(C)C)c4c3)c(F)cn2)nc1 [Compound 13, 5-((3-ethyl-3,8-diazabicyclo[3.2.1]octan-8-yl)methyl)-N-(5-fluoro-4-(4-fluoro-1-isopropyl-2-methyl-1H-benzo[d]imidazol-6-yl)pyridin-2-yl)pyrimidin-2-amine]
CDK6/D3
  IC50: 31.3 nM
CDK4/D3
  IC50: 3 nM

## Cc1nc2c(F)cc(-c3cc(Nc4ncc(CN5C[C@H]6CN(C)C[C@H]6C5)cn4)ncc3F)cc2n1C(C)C [Compound 6-1, N-(5-fluoro-4-(4-fluoro-1-isopropyl-2-methyl-1H-benzo[d]imidazol-6-yl)pyridin-2-yl)-5-(((cis)-5-methylhexahydropyrrolo[3,4-c]pyrrol-2(1H)-yl)methyl)pyrimidin-2-amine]
[1]
  IC50: 83 nM
[2]
  IC50: 47 nM
[3]; IV, 2.5 mg/kg
  AUC(0-t): 985 ng·h/mL
  clearance: 40.2 mL/min/kg
[3]; IV, 2.5 mg/kg, read-out: Vss
  Vd: 12.5 L/kg
[3]; PO, 10 mg/kg
  AUC(0-t): 1410 ng·h/mL
  Cmax: 300 ng/mL
  Tmax: 2 h
  bioavailability: 39.3%
[3]; PO, 200 mg/kg
  AUC(0-t): 90900 ng·h/mL
  Cmax: 5370 ng/mL
  Tmax: 2 h
  bioavailability: 115%
[4]
  IC50: 70 nM
